Values after ≈ are worked out from the molar mass of the structure shown.
What was measured:
α-glucosidase = experiment: In vitro α-glucosidase inhibition assay (pNPG substrate); type: biochemical, Saccharomyces Cerevisiae; conditions: for IC50: means ± SEM of triplicate
Protocol: The α-glucosidase inhibition assay was performed as described previously. In summary, the stock solution of the enzyme from Saccharomyces Cerevisiae (0.2 U/mL) was prepared in 0.05 M sodium phosphate buffer pH 6.8. […] After incubation, 10 µL of the substrate, p-nitrophenyl α-D-glucopyranoside (pNPG, 5 mM solution in 0.05 M phosphate buffer) was added to the aboveprepared mixture and incubated again under the same experimental conditions. The reaction was stopped with the addition of 0.1 M Na2CO3 and OD405 was taken by a 96-well ELISA reader. The experiment was performed in triplicate.

P. vulgaris = experiment: Antibacterial activity, minimum inhibitory concentration; type: cell-based; design: key: R: resistant; S: sensitive
Protocol: (§1) The prepared azo derivatives were screened for their antibacterial activity against six bacterial strains obtained from hospital isolates i.e. gram positive (S. aureus, S. aureus (DR)) and gram-negative (E. coli, P. aeruginosa, P. aeruginosa (DR), P. vulgaris). All the strains were confirmed by biochemical identification and drug susceptibility methods. The antibacterial evaluation was done by agar disc diffusion method[39]^,[40] and MIC was determined. In summary, a 48-h old inoculum having ∼0.48 OD600, of the above-mentioned bacterial strains was spread on the solidified trypticase soy agar media and Whatman no. 1 filter paper discs (5 mm in diameter) soaked with the title compounds (10 µL/disc of 10 mg/mL) were placed on the plates. Ampicillin and moxifloxacin were used as positive controls and DMSO as negative control respectively.

P. aeruginosa (DR) = experiment: as above; type: cell-based; design: key: R: resistant; S: sensitive
Protocol: as §1

S. aureus (DS) = experiment: as above; type: cell-based; design: key: R: resistant; S: sensitive
Protocol: as §1

P. aeruginosa (DS) = experiment: as above; type: cell-based; design: key: R: resistant; S: sensitive
Protocol: as §1

E. coli = experiment: as above; type: cell-based; design: key: R: resistant; S: sensitive
Protocol: as §1

S. aureus (DR) = experiment: as above; type: cell-based; design: key: R: resistant; S: sensitive
Protocol: as §1

[1] = system: screened pathogens (S. aureus, P. aeruginosa, E. coli and P. vulgaris); experiment: Antibacterial activity, average MIC over screened pathogens; type: cell-based
Protocol: as §1, with “All the strains were confirmed by biochemical identification and drug susceptibility methods.” left out, “plates.” for “plates. Ampicillin and moxifloxacin were used as positive controls and DMSO as negative control respectively.”

Row | Compound | % Inhibition (α-glucosidase; 15.62 µg/mL) [%] | % Inhibition (α-glucosidase; 31.2 µg/mL) [%] | % Inhibition (α-glucosidase; 125 µg/mL) [%] | % Inhibition (α-glucosidase; 250 µg/mL) [%] | IC50 (α-glucosidase) [µg/mL] | Minimum inhibitory concentration: sensitive/resistant (P. vulgaris; 125 µg/200 µL) | Minimum inhibitory concentration: sensitive/resistant (P. vulgaris; 250 µg/200 µL) | Minimum inhibitory concentration: sensitive/resistant (P. aeruginosa (DR); 125 µg/200 µL) | Minimum inhibitory concentration: sensitive/resistant (P. aeruginosa (DR); 250 µg/200 µL) | Minimum inhibitory concentration: sensitive/resistant (S. aureus (DS); 125 µg/200 µL) | Minimum inhibitory concentration: sensitive/resistant (S. aureus (DS); 250 µg/200 µL) | Minimum inhibitory concentration: sensitive/resistant (P. aeruginosa (DS); 125 µg/200 µL) | Minimum inhibitory concentration: sensitive/resistant (P. aeruginosa (DS); 250 µg/200 µL) | Minimum inhibitory concentration: sensitive/resistant (E. coli; 125 µg/200 µL) | Minimum inhibitory concentration: sensitive/resistant (E. coli; 250 µg/200 µL) | Minimum inhibitory concentration: sensitive/resistant (S. aureus (DR); 125 µg/200 µL) | Minimum inhibitory concentration: sensitive/resistant (S. aureus (DR); 250 µg/200 µL) | MIC (average value) [1] [µg/200 µL]
1 | 4-((2-chloropyridin-3-yl)diazenyl)naphthalen-2-ol [TR-9] | 22 | 39 | 63 | 78 | 54.4 ± 3.3 | R | R | R | R | R | R | R | S | R | R | S | S | 
2 | C[C@H]1O[C@H](O[C@H]2[C@H](O)[C@@H](O)[C@@H](O[C@H]3[C@H](O)[C@@H](O)C(O)O[C@@H]3CO)O[C@@H]2CO)[C@H](O)[C@@H](O)[C@@H]1N[C@H]1C=C(CO)[C@@H](O)[C@H](O)[C@H]1O (some centres unmarked) [Acarbose, reference compound] | 40 | 62 | 85 | 92 |  |  |  |  |  |  |  |  |  |  |  |  |  | 
3 | CC1(C)S[C@@H]2[C@H](NC(=O)[C@H](N)c3ccccc3)C(=O)N2[C@H]1C(=O)O [Ampicillin, reference compound] |  |  |  |  |  | S | S |  |  | S | S | S | S | S | S |  |  | 62.5
4 | COc1c(N2C[C@@H]3CCCN[C@@H]3C2)c(F)cc2c(=O)c(C(=O)O)cn(C3CC3)c12 [Moxifloxacin, reference compound] |  |  |  |  |  |  |  | S | S |  |  |  |  |  |  | S | S | 
5 | O=[N+]([O-])c1ccc(/N=N/c2ccc(O)c3ccccc23)cc1 [TR-2, (E)-4-((4-nitrophenyl)diazenyl)naphthalen-1-ol] | 16 | 30 | 55 | 60 | 110.2 ± 7.8 (≈ 376 µM) | R | R | R | R | R | R | R | S | R | S | S | S | 
6 | (E)-4-(p-tolyldiazenyl)benzene-1,3-diol [TR-6] | 22 | 38 | 63 | 87 | 53.7 ± 3.2 | S | S | R | R | S | S | S | S | R | S | S | S | 125
7 | (E)-4-(p-tolyldiazenyl)naphthalen-1-ol [TR-4] | 7 | 13 | 35 | 43 |  | S | S | S | S | S | S | S | S | R | R | S | S | 125
